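Five concentrations, 48 hours, 96-well plates. Here, GI50 denotes the concentration required for 50% inhibition of growth.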 The source made the active and inactive calls. Cut-off read from the data, not from the text of the source: active = GI50 up to about 1.1 µM and inactive = higher.
Legend:
Assay in all cases: NCI anticancer screen, dose series, 48 h
LOX IMVI = system: LOX IMVI
786-0 = system: 786-0
OVCAR-5 = system: OVCAR-5
MDA-MB-435 = system: MDA-MB-435
RPMI-8226 = system: RPMI-8226
Malme-3M = system: Malme-3M
T47D = system: T47D
HOP-62 = system: HOP-62
BT-549 = system: BT-549
MDA-N = system: MDA-N
SF-539 = system: SF-539
SR = system: SR
NCI/ADR-RES = system: NCI/ADR-RES
KM12 = system: KM12
HCC 2998 = system: HCC 2998

| Structure (SMILES) | GI50 (LOX IMVI) | GI50 (786-0) | GI50 (OVCAR-5) | GI50 (MDA-MB-435) | GI50 (RPMI-8226) | GI50 (Malme-3M) | GI50 (T47D) | GI50 (HOP-62) | GI50 (BT-549) | GI50 (MDA-N) | GI50 (SF-539) | GI50 (SR) | GI50 (NCI/ADR-RES) | GI50 (KM12) | GI50 (HCC 2998) |
| --- | --- | --- | --- | --- | --- | --- | --- | --- | --- | --- | --- | --- | --- | --- | --- |
| Cn1c(=S)c2nc(SCCCc3ccccc3)[nH]c2n(C)c1=O | 27.5 µM (inactive) | 25.1 µM (inactive) | 20.7 µM (inactive) | 23.2 µM (inactive) | 15.1 µM (inactive) | 62.1 µM (inactive) | 14.6 µM (inactive) | 17.3 µM (inactive) | 45.1 µM (inactive) | 21.8 µM (inactive) | 27.9 µM (inactive) | 4.85 µM (inactive) | 22.3 µM (inactive) | 19.5 µM (inactive) | – |
| Cc1ccc(-c2cs/c(=N\c3ccccc3)n2NC(=O)c2ccncc2)cc1 | 34.2 µM (inactive) | 48 µM (inactive) | 40.8 µM (inactive) | 29.4 µM (inactive) | 22.6 µM (inactive) | 43.3 µM (inactive) | 24.5 µM (inactive) | 39.4 µM (inactive) | 30.8 µM (inactive) | 25.4 µM (inactive) | 69 µM (inactive) | 34.8 µM (inactive) | 28.3 µM (inactive) | 31.4 µM (inactive) | 75.2 µM (inactive) |
| NC(=O)c1ccc[n+](C2=C([N-]S(=O)(=O)c3ccccc3)C(=O)c3ccccc3C2=O)c1 | 12.9 µM (inactive) | 17.8 µM (inactive) | 19.1 µM (inactive) | 4.89 µM (inactive) | 26.2 µM (inactive) | 6.22 µM (inactive) | 22.6 µM (inactive) | 17.9 µM (inactive) | 14.8 µM (inactive) | 16.7 µM (inactive) | 18 µM (inactive) | 33.6 µM (inactive) | 15.8 µM (inactive) | 13.1 µM (inactive) | 10.3 µM (inactive) |
| O=c1[nH]nc(Cc2ccccc2)n1O | > 100 µM (inactive) | > 100 µM (inactive) | – | > 100 µM (inactive) | > 100 µM (inactive) | > 100 µM (inactive) | > 100 µM (inactive) | > 100 µM (inactive) | > 100 µM (inactive) | > 100 µM (inactive) | > 100 µM (inactive) | > 100 µM (inactive) | > 100 µM (inactive) | > 100 µM (inactive) | – |
| C=CCOc1ccc(C(=N/NC(=O)c2ccccc2)/N=N/c2ccc(C)cc2)cc1OC | 14.7 µM (inactive) | 33.9 µM (inactive) | 42.6 µM (inactive) | 19.5 µM (inactive) | – | 21.1 µM (inactive) | 14.2 µM (inactive) | 37.8 µM (inactive) | 18.3 µM (inactive) | 20.7 µM (inactive) | – | 6.17 µM (inactive) | 35.7 µM (inactive) | 18.1 µM (inactive) | 18.7 µM (inactive) |
| Cc1nn(C(=O)c2ccncc2)c2c1C(c1ccccc1O)SC(=N)N2 (configuration not stated) | > 10 µM (inactive) | > 10 µM (inactive) | > 10 µM (inactive) | > 10 µM (inactive) | > 10 µM (inactive) | > 10 µM (inactive) | > 10 µM (inactive) | > 10 µM (inactive) | > 10 µM (inactive) | > 10 µM (inactive) | > 10 µM (inactive) | > 10 µM (inactive) | > 10 µM (inactive) | > 10 µM (inactive) | > 10 µM (inactive) |
| CCSC1=N/C(=C/c2ccccc2O)C(=O)N1 | 52 µM (inactive) | 28.5 µM (inactive) | > 100 µM (inactive) | > 100 µM (inactive) | > 100 µM (inactive) | > 100 µM (inactive) | 60.7 µM (inactive) | 41.1 µM (inactive) | > 100 µM (inactive) | > 100 µM (inactive) | 20.7 µM (inactive) | 63 µM (inactive) | 45.5 µM (inactive) | 51.1 µM (inactive) | > 100 µM (inactive) |
| CC(=O)O[C@H]1[C@@H](OC2CCCC2(c2ccccc2)c2ccccc2)O[N+]([O-])=C[C@@H]1c1ccccc1 (some centres not stated) | 2.1 µM (inactive) | 1.86 µM (inactive) | 17.6 µM (inactive) | 3.34 µM (inactive) | 2.01 µM (inactive) | – | 7.52 µM (inactive) | 16.6 µM (inactive) | 4.24 µM (inactive) | 4.94 µM (inactive) | – | 2.4 µM (inactive) | 5.42 µM (inactive) | 11.3 µM (inactive) | 10.4 µM (inactive) |
| O=CNCCCN1CCN(CCCNC=O)CC1 | > 100 µM (inactive) | > 100 µM (inactive) | > 100 µM (inactive) | > 100 µM (inactive) | > 100 µM (inactive) | – | > 100 µM (inactive) | > 100 µM (inactive) | > 100 µM (inactive) | > 100 µM (inactive) | > 100 µM (inactive) | > 100 µM (inactive) | > 100 µM (inactive) | > 100 µM (inactive) | > 100 µM (inactive) |
| CCOc1ccc2nc3cc(/N=N/c4ccc(N)nc4N)ccc3c(N)c2c1 | 0.419 µM (active) | 1.46 µM (inactive) | 21.1 µM (inactive) | 3.03 µM (inactive) | 20 µM (inactive) | 4.45 µM (inactive) | 1.67 µM (inactive) | 3.75 µM (inactive) | 13.4 µM (inactive) | 2.24 µM (inactive) | 2.05 µM (inactive) | – | > 88.1 µM (inactive) | 3.37 µM (inactive) | 1.79 µM (inactive) |
| CC1=NC(=N)N=C(C)C1/N=N/c1ccc2[nH]c(C)nc2c1 (configuration not stated) | > 100 µM (inactive) | > 100 µM (inactive) | > 100 µM (inactive) | > 100 µM (inactive) | > 100 µM (inactive) | > 100 µM (inactive) | > 100 µM (inactive) | > 100 µM (inactive) | > 100 µM (inactive) | > 100 µM (inactive) | > 100 µM (inactive) | – | > 100 µM (inactive) | > 100 µM (inactive) | > 100 µM (inactive) |
| COC(=O)C(=O)C(C(=O)C(=O)Nc1cccc(OC)c1)c1nc2ccc(Cl)cc2nc1O (configuration not stated) | > 100 µM (inactive) | > 100 µM (inactive) | > 100 µM (inactive) | 83.6 µM (inactive) | > 100 µM (inactive) | > 100 µM (inactive) | > 100 µM (inactive) | – | > 100 µM (inactive) | > 100 µM (inactive) | > 100 µM (inactive) | – | > 100 µM (inactive) | > 100 µM (inactive) | 96.2 µM (inactive) |
| CC(C)C1=CCC2C(=C1)CCC1C(C)(C(=O)O)CCCC21C (configuration not stated) | > 100 µM (inactive) | > 100 µM (inactive) | > 100 µM (inactive) | > 100 µM (inactive) | 19.9 µM (inactive) | > 100 µM (inactive) | > 100 µM (inactive) | > 100 µM (inactive) | > 100 µM (inactive) | > 100 µM (inactive) | > 100 µM (inactive) | > 100 µM (inactive) | 76.2 µM (inactive) | 92.3 µM (inactive) | > 100 µM (inactive) |
| CC1(C)OCC2OC3([C@@H]4OC(C)(C)O[C@H]4CO)OC(C)(C)OC3C2O1 (some centres not stated) | > 100 µM (inactive) | > 100 µM (inactive) | > 100 µM (inactive) | > 100 µM (inactive) | > 100 µM (inactive) | – | > 100 µM (inactive) | > 100 µM (inactive) | > 100 µM (inactive) | > 100 µM (inactive) | > 100 µM (inactive) | > 100 µM (inactive) | > 100 µM (inactive) | > 100 µM (inactive) | > 100 µM (inactive) |
| CC(C)=CCC/C(C)=C/Cc1c2c(c3oc(-c4ccc(O)c(O)c4)c(O)c(=O)c3c1O)C=CC(C)(C)O2 | – | 1.85 µM (inactive) | 7.18 µM (inactive) | 5.33 µM (inactive) | 1.82 µM (inactive) | 0.665 µM (active) | 1.65 µM (inactive) | 4.45 µM (inactive) | 7.66 µM (inactive) | 5.02 µM (inactive) | 1.79 µM (inactive) | 1.84 µM (inactive) | 5.32 µM (inactive) | 3.45 µM (inactive) | – |
| O=[N+]([O-])C(=C(NCc1ccccc1)NCc1ccccc1)C(Cl)=C(Cl)Cl | 17.4 µM (inactive) | 43.6 µM (inactive) | – | 22.9 µM (inactive) | 29.9 µM (inactive) | 19 µM (inactive) | 27.3 µM (inactive) | > 100 µM (inactive) | 34.4 µM (inactive) | 25.2 µM (inactive) | 43 µM (inactive) | 23.8 µM (inactive) | 45.1 µM (inactive) | 20.3 µM (inactive) | 40.6 µM (inactive) |
| CC(=O)OC12CC[N+]3(C)CCCCC3C1=Nc1ccccc12 (configuration not stated) | > 100 µM (inactive) | > 100 µM (inactive) | > 100 µM (inactive) | > 100 µM (inactive) | > 100 µM (inactive) | > 100 µM (inactive) | > 100 µM (inactive) | > 100 µM (inactive) | > 100 µM (inactive) | > 100 µM (inactive) | > 100 µM (inactive) | > 100 µM (inactive) | > 100 µM (inactive) | 82.8 µM (inactive) | – |
| CCCCCCCCCCCCCCCCOCC(Cl)CP(=O)(O)OP(=O)(O)OCC1OC(n2cnc3c(N)ncnc32)C(O)C1O (configuration not stated) | > 100 µM (inactive) | > 100 µM (inactive) | > 100 µM (inactive) | > 100 µM (inactive) | – | > 100 µM (inactive) | > 100 µM (inactive) | > 100 µM (inactive) | > 100 µM (inactive) | > 100 µM (inactive) | > 100 µM (inactive) | > 100 µM (inactive) | > 100 µM (inactive) | > 100 µM (inactive) | > 100 µM (inactive) |
| C=C1C(=O)O[C@@H]2/C=C(/C)[C@@H](OC(C)=O)C[C@@H](O)/C(C)=C\[C@@H](OC(=O)[C@]3(C)O[C@@H]3C)[C@@H]12 | 7.26 µM (inactive) | 4.57 µM (inactive) | 18.6 µM (inactive) | 15.3 µM (inactive) | 5.78 µM (inactive) | 2.86 µM (inactive) | 11.1 µM (inactive) | 40.6 µM (inactive) | 5.83 µM (inactive) | 15.7 µM (inactive) | 21.2 µM (inactive) | 4.6 µM (inactive) | 46.6 µM (inactive) | 17.5 µM (inactive) | 18.2 µM (inactive) |
